Source: ChEMBL document CHEMBL1133054, “Noncovalent thrombin inhibitors incorporating an imidazolylethynyl P1” (Bioorg Med Chem Lett, 2000)

How the values were obtained:
[1] = Peak plasma concentration (Cmax) was determined; assay type: ADME, organism-based; details: rat
Prothrombin = Prothrombin (Homo sapiens, UniProt P00734); experiment: In vitro inhibition of human thrombin.
Serine protease 1 = biological target: T1, Serine protease 1 (Bos taurus, UniProt P00760); experiment: Inhibitory activity against Bovine Trypsin
T1 sequence (P00760 whole entry): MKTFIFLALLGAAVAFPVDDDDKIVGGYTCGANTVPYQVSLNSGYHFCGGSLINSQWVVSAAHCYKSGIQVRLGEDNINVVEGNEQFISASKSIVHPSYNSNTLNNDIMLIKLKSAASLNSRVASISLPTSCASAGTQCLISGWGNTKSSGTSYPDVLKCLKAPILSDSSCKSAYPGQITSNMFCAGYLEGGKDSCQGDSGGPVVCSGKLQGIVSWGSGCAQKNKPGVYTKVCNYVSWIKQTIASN

[2] = Maximum time (Tmax) required to reach Cmax in rats; assay type: ADME, organism-based; details: rat, in vivo
[3] = Area under curve (AUC) at a dose of […] mg/kg in rats; assay type: ADME, organism-based; details: rat, in vivo, 30 mg/kg
[4] = Peak plasma concentration (Cmax) in rats; assay type: ADME, organism-based; details: rat
Rattus norvegicus = experiment: Oral bioavailability; assay type: ADME, organism-based; details: in vivo
[5] = Area under curve at a dose of 10 mg/kg; assay type: ADME, organism-based; design: dose 10 mg/kg; details: in vivo
[6] = Bioavailability; assay type: ADME, organism-based; details: eutheria, in vivo
[7] = Half life (t1/2) was determined; assay type: ADME, organism-based; details: rat, in vivo
[8] = Area under curve at a dose of 30 mg/kg; assay type: ADME, organism-based; design: dose 30 mg/kg; details: rat, in vivo
[9] = Plasma Clearance was determined; assay type: ADME, organism-based; details: rat

Compound	Ki (Prothrombin)	Ki (Serine protease 1)	other results
CC(=O)N[C@@H](C(=O)N1CCC[C@H]1C(=O)NCC#Cc1cnc[nH]1)C(c1ccccc1)c1ccccc1	0.208 µM	–	Cmax [1]: 1600 nM
COC(=O)N[C@@H](C(=O)N1CCC[C@H]1C(=O)NCC#Cc1c[nH]cn1)C(C1CCCCC1)C1CCCCC1	0.015 µM	30 µM	–
NS(=O)(=O)N[C@@H](C(=O)N1CCC[C@H]1C(=O)NCC#Cc1c[nH]cn1)C(c1ccccc1)c1ccccc1	0.0008 µM	18 µM	–
CC(C)(C)OC(=O)N[C@@H](C(=O)N1CCC[C@H]1C(=O)NCC#Cc1c[nH]cn1)C(c1ccccc1)c1ccccc1	–	50 µM	Tmax [2]: 1 h; AUC [3]: 29 µM·h; Cmax [4]: 14600 nM
CC(C)(C)OC(=O)N[C@H](Cc1ccccc1)C(=O)N1CCC[C@H]1C(=O)NCC#Cc1ccncc1	> 20 µM	–	–
CC(C)(C)OC(=O)N[C@H](Cc1ccccc1)C(=O)N1CCC[C@H]1C(=O)NCC#Cc1cn[nH]c1	5.4 µM	–	–
O=C(O)CN[C@@H](C(=O)N1CCC[C@H]1C(=O)NCC#Cc1cnc[nH]1)C(c1ccccc1)c1ccccc1	0.044 µM	47 µM	Cmax [1]: 1600 nM
O=C(NCC#Cc1cnc[nH]1)[C@@H]1CCCN1C(=O)[C@H](NS(=O)(=O)Cc1ccccc1)C(c1ccccc1)c1ccccc1	0.003 µM	24 µM	–
NC1CCC(CNC(=O)[C@@H]2CCCN2C(=O)[C@H](N)C(c2ccccc2)c2ccccc2)CC1 (stereo not given in full)	–	–	F (Rattus norvegicus): Oral bioavailability
CC(C)(C)OC(=O)N[C@@H](C(=O)N1CCC[C@H]1C(=O)NCC#Cc1cnc[nH]1)C(C1CCCCC1)C1CCCCC1	0.029 µM	30 µM	–
COC(=O)N[C@@H](C(=O)N1CCC[C@H]1C(=O)NCC#Cc1c[nH]cn1)C(c1ccccc1)c1ccccc1	0.014 µM	24 µM	AUC [5]: 26 µM·h; Tmax [2]: 1 h; Cmax [1]: 23600 nM; bioavailability [6]: 58%; half-life [7]: 0.667 h; AUC [8]: 46 µM·h; clearance [9]: 12.8 mL/min/kg
CN(C(=O)[C@H](Cc1ccc(C(=N)NN)cc1)NS(=O)(=O)c1ccc2ccccc2c1)C1CCCC1	–	33 µM	–
NC1CCC(CNC(=O)[C@@H]2CCCN2C(=O)[C@H](NS(=O)(=O)Cc2ccccc2)C(c2ccccc2)c2ccccc2)CC1 (stereo not given in full)	–	–	F (Rattus norvegicus): Oral bioavailability
Cn1cncc1C#CCNC(=O)[C@@H]1CCCN1C(=O)[C@@H](Cc1ccccc1)NC(=O)OC(C)(C)C	5.5 µM	–	–
CS(=O)(=O)N[C@@H](C(=O)N1CCC[C@H]1C(=O)NCC#Cc1c[nH]cn1)C(c1ccccc1)c1ccccc1	0.0026 µM	14 µM	–
CC(C)(C)OC(=O)N[C@H](Cc1ccccc1)C(=O)N1CCC[C@H]1C(=O)NCC#Cc1ccc(N)nc1	> 20 µM	–	–
CC(C)(C)OC(=O)N[C@H](Cc1ccccc1)C(=O)N1CCC[C@H]1C(=O)NCC#Cc1cnc[nH]1	1.2 µM	–	–
O=C(O)CN[C@H](CC1CCCCC1)C(=O)N1CCC[C@H]1C(=O)NCC#Cc1cnc[nH]1	0.48 µM	–	Cmax [1]: 1600 nM
N[C@@H](C(=O)N1CCC[C@H]1C(=O)NCC#Cc1cnc[nH]1)C(c1ccccc1)c1ccccc1	0.012 µM	25 µM	–
